For 28 compounds, IC50 and MIC results are on record in ChEMBL document CHEMBL2380203, “Structure-activity relationship of cytochrome bc1 reductase inhibitor broad spectrum antifungal ilicicolin H” (Bioorg Med Chem Lett, 2013).

Structures are written as SMILES. Converted amounts (≈) assume the structure as drawn.

A short description of experiment [1]: Inhibition of Candida albicans MY1055 NADH:cytochrome bc1 reductase.
A short description of experiment [2]: Inhibition of rat liver NADH:cytochrome bc1 reductase.
The test system of experiment [3] is Candida albicans. The experiment is described as follows: Antifungal activity against Candida albicans MY1055 assessed as growth inhibition after 24 hrs by liquid microdilution assay. The class given is functional. As to conditions: MY1055, 24 h.

For the compound `C/C=C/[C@@H]1[C@H]2C[C@@H](C)CC[C@@H]2C(C)=C[C@H]1C(=O)c1c(O)c(-c2ccc(OC(=O)Nc3ccc(Br)cc3)cc2)c[nH]c1=O`, the IC50 in experiment [1] was determined as 0.2 µg/mL (≈ 0.317 µM); in experiment [2], 1 µg/mL (≈ 1.58 µM). In addition, in experiment [3], the MIC worked out at 5 µg/mL (≈ 7.92 µM).
Consider `C/C=C/[C@@H]1[C@H]2C[C@@H](C)CC[C@@H]2C(C)=C[C@H]1C(=O)c1c(O)c(-c2ccc(OC(=O)CCCCNC(=O)OC(C)(C)C)cc2)c[nH]c1=O`, for which the IC50 was 0.005 µg/mL (≈ 0.0079 µM) in experiment [1] and greater than 1 µg/mL in experiment [2]. Besides, the MIC in experiment [3] is 0.25 µg/mL (≈ 0.395 µM).
For `C/C=C/[C@@H]1[C@H]2C[C@@H](C)CC[C@@H]2C(C)=C[C@H]1C(=O)c1c(O)c(-c2ccc(OC)cc2)c[nH]c1=O`, the IC50 in experiment [1] was determined as 0.003 µg/mL (≈ 0.0067 µM); in experiment [2] it was 0.2 µg/mL (≈ 0.447 µM). The minimum inhibitory concentration (MIC) in experiment [3] was 0.25 µg/mL (≈ 0.559 µM).
Turning to `C/C=C/[C@@H]1[C@H]2C[C@@H](C)CC[C@@H]2C(C)=C[C@H]1C(=O)c1c(O)c(-c2ccc(OCC(=O)OC(C)(C)C)cc2)cn(CC(=O)OC(C)(C)C)c1=O`, the IC50 in experiment [1] is greater than 1.6 µg/mL; in experiment [2], 1.6 µg/mL (≈ 2.42 µM). For the same compound, in experiment [3], the MIC was greater than 5 µg/mL.
In the case of `C/C=C/[C@@H]1[C@H]2C[C@@H](C)CC[C@@H]2C(C)=C[C@H]1C(=O)c1c(O)c(-c2ccc(OC(=O)c3ccccc3)cc2)c[nH]c1=O`, the IC50 in experiment [1] worked out at 0.008 µg/mL (≈ 0.0149 µM); in experiment [2] it was 1 µg/mL (≈ 1.86 µM). The MIC in experiment [3] is 1 µg/mL (≈ 1.86 µM).
As for `C=CCn1cc(-c2ccc(O)cc2)c(O)c(C(=O)[C@@H]2C=C(C)[C@H]3CC[C@H](C)C[C@@H]3[C@H]2/C=C/C)c1=O`, the values for the IC50 in experiment [1] and in experiment [2] were 0.008 µg/mL (≈ 0.0169 µM) and 1 µg/mL (≈ 2.11 µM), respectively. In experiment [3], the MIC is 1 µg/mL (≈ 2.11 µM).
As to `C/C=C/[C@@H]1[C@H]2C[C@@H](C)CC[C@@H]2C(C)=C[C@H]1C(=O)c1c(O)c(-c2ccc(OC(=O)CCCNC(=O)OC(C)(C)C)cc2)c[nH]c1=O`, the IC50 in experiment [1] was 0.004 µg/mL (≈ 0.00646 µM); in experiment [2], greater than 1 µg/mL. In addition, in experiment [3], the MIC stood at 0.125 µg/mL (≈ 0.202 µM).
In the case of `C/C=C/[C@@H]1[C@H]2C[C@@H](CO)CC[C@@H]2C(C)=C[C@H]1C(=O)c1c(O)c(-c2ccc(OC(=O)CC)cc2)c[nH]c1=O`, the figures for the half-inhibitory concentration (IC50) in experiment [1] and in experiment [2] were 0.008 µg/mL (≈ 0.0158 µM) and greater than 0.8 µg/mL, respectively. Moreover, the MIC in experiment [3] stood at 0.25 µg/mL (≈ 0.494 µM).
Consider `C/C=C/[C@@H]1[C@H]2C[C@@H](COC(=O)C3CC3)CC[C@@H]2C(C)=C[C@H]1C(=O)c1c(O)c(-c2ccc(OC(=O)C3CC3)cc2)c[nH]c1=O`, for which the concentration for half-maximal inhibition (IC50) was found to be 0.0008 µg/mL (≈ 0.00137 µM) in experiment [1] and 0.01 µg/mL (≈ 0.0171 µM) in experiment [2]. The MIC in experiment [3] was greater than 5 µg/mL.
In the case of `C/C=C/[C@@H]1[C@H]2C[C@@H](C)CC[C@@H]2C(C)=C[C@H]1C(=O)c1c(O)c(-c2ccc(O)cc2)cn(CC#N)c1=O`, the IC50 was 0.001 µg/mL (≈ 0.00212 µM) in experiment [1] and 0.8 µg/mL (≈ 1.69 µM) in experiment [2]. For the same compound, the MIC in experiment [3] worked out at 0.062 µg/mL (≈ 0.131 µM).
Turning to `C/C=C/[C@@H]1[C@H]2C[C@@H](CO)CC[C@@H]2C(C)=C[C@H]1C(=O)c1c(O)c(-c2ccc(OC(=O)C3CC3)cc2)c[nH]c1=O`, the half-maximal inhibitory concentration (IC50) in experiment [1] worked out at 0.002 µg/mL (≈ 0.00386 µM); in experiment [2] it was 0.008 µg/mL (≈ 0.0155 µM). Besides, in experiment [3], the MIC was 0.25 µg/mL (≈ 0.483 µM).
The corresponding values for `C/C=C/[C@@H]1[C@H]2C[C@@H](C)CC[C@@H]2[C@](C)(Br)[C@H]2Oc3ncc(-c4ccc(O)c(Br)c4)c(O)c3C(=O)[C@@H]12` are greater than 1 µg/mL, 1 µg/mL (≈ 1.69 µM) and greater than 5 µg/mL.
In the case of `C/C=C/[C@@H]1[C@H]2C[C@@H](C)CC[C@@H]2[C@](C)(I)[C@H]2Oc3ncc(-c4ccc(O)c(I)c4)c(O)c3C(=O)[C@@H]12`, the MIC in experiment [3] is greater than 5 µg/mL.
As for `C/C=C/[C@@H]1[C@H]2C[C@@H](C)CC[C@@H]2[C@](C)(O)[C@H]2Oc3ncc(-c4ccc(O)cc4)c(O)c3C(=O)[C@@H]12`, the half-maximal inhibitory concentration (IC50) in experiment [1] was greater than 1 µg/mL; in experiment [2], 1 µg/mL (≈ 2.22 µM). Also, in experiment [3], the MIC is greater than 5 µg/mL.
As for `C/C=C/c1c(C(=O)c2c(O)c(-c3ccc(O)cc3)c[nH]c2=O)cc(C)c2c1C[C@@H](C)CC2`, the MIC in experiment [3] is greater than 1 µg/mL.
With `C/C=C/[C@@H]1[C@H]2C[C@@H](C)CC[C@@H]2C(C)=C[C@H]1C(=O)c1c(O)c(-c2ccc(O)cc2)cn(C)c1=O`, the IC50 in experiment [1] stood at 0.0016 µg/mL (≈ 0.00357 µM); in experiment [2] it was 0.25 µg/mL (≈ 0.559 µM). Moreover, in experiment [3], the MIC amounted to 0.25 µg/mL (≈ 0.559 µM).
As for `C/C=C/[C@@H]1[C@H]2C[C@@H](C)CC[C@@H]2C(C)=C[C@H]1C(=O)c1c(O)c(-c2ccc(OC(=O)C3CCC3)cc2)c[nH]c1=O`, the IC50 in experiment [1] was 0.002 µg/mL (≈ 0.00388 µM); in experiment [2], greater than 0.8 µg/mL. Also, in experiment [3], the MIC stood at 0.062 µg/mL (≈ 0.12 µM).
Consider `C/C=C/[C@@H]1[C@H]2C[C@@H](C)CC[C@@H]2[C@](C)(Cl)[C@H]2Oc3ncc(-c4ccc(O)cc4)c(O)c3C(=O)[C@@H]12`, for which the IC50 was determined as 0.2 µg/mL (≈ 0.427 µM) in experiment [1] and 1 µg/mL (≈ 2.14 µM) in experiment [2]. In addition, in experiment [3], the minimum inhibitory concentration (MIC) worked out at 5 µg/mL (≈ 10.7 µM).
In the case of `C/C=C/[C@@H]1[C@H]2C[C@@H](C)CC[C@@H]2C(C)=C[C@H]1C(=O)c1c(OC)ncc(-c2ccc(O)cc2)c1O`, the IC50 is 0.02 µg/mL (≈ 0.0447 µM) in experiment [1] and greater than 1 µg/mL in experiment [2]. Moreover, the MIC in experiment [3] is greater than 1 µg/mL.
As for `C/C=C/[C@@H]1[C@H]2C[C@@H](C)CC[C@@H]2C(C)=C[C@H]1C(=O)c1c(O)c(-c2ccc(OCC(=O)O)cc2)cn(CC(=O)O)c1=O`, the half-inhibitory concentration (IC50) in experiment [1] is greater than 1 µg/mL; in experiment [2], 1 µg/mL (≈ 1.82 µM). For the same compound, the minimum inhibitory concentration (MIC) in experiment [3] was greater than 5 µg/mL.
Take `C/C=C/[C@@H]1[C@H]2C[C@@H](C)CC[C@@H]2[C@](C)(Br)[C@H]2Oc3ncc(-c4ccc(O)c(Br)c4Br)c(O)c3C(=O)[C@@H]12`: the IC50 in experiment [1] and in experiment [2] was 1 µg/mL (≈ 1.49 µM) in each case. For the same compound, the MIC in experiment [3] was greater than 5 µg/mL.
For the compound `C/C=C/[C@@H]1[C@H]2C[C@@H](C)CC[C@@H]2C(C)=C[C@H]1C(=O)c1c(O)c(-c2ccc(OC(=O)Cc3ccccc3)cc2)c[nH]c1=O`, the IC50 was 0.0005 µg/mL (≈ 0.000906 µM) in experiment [1] and 1 µg/mL (≈ 1.81 µM) in experiment [2]. Also, the minimum inhibitory concentration (MIC) in experiment [3] is 0.25 µg/mL (≈ 0.453 µM).
With `C/C=C/[C@@H]1[C@H]2C[C@@H](C)CC[C@@H]2C(C)=C[C@H]1C(=O)c1c(O)c(-c2ccc(OCC#N)cc2)cn(CC#N)c1=O`, the IC50 in experiment [1] turned out to be 0.1 µg/mL (≈ 0.195 µM). In experiment [3], the MIC is 1 µg/mL (≈ 1.95 µM).
The compound `C/C=C/[C@@H]1[C@H]2C[C@@H](C)CC[C@@H]2C(C)=C[C@H]1C(=O)c1c(O)c(-c2ccc(O)cc2)cn(CC(N)=O)c1=O` showed a 50% inhibitory concentration (IC50) in experiment [1] of 0.04 µg/mL (≈ 0.0815 µM). The MIC in experiment [3] amounted to 0.031 µg/mL (≈ 0.0632 µM).
With `C/C=C/[C@@H]1[C@H]2C[C@@H](C)CC[C@@H]2C(C)=C[C@H]1C(=O)c1c(O)c(-c2ccc(OC)cc2)cn(C)c1=O`, the IC50 in experiment [1] turned out to be 0.008 µg/mL (≈ 0.0173 µM). Besides, the MIC in experiment [3] is greater than 1 µg/mL.
Take `C/C=C/[C@@H]1[C@H]2C[C@@H](C)CC[C@@H]2C(C)=C[C@H]1C(=O)c1c(O)c(-c2ccc(O)cc2)cn(CC)c1=O`: the MIC in experiment [3] is 0.312 µg/mL (≈ 0.676 µM).
The compound `C/C=C/[C@H]1[C@@H]2C(=O)c3c(ncc(-c4ccc(O)cc4)c3O)O[C@@H]2C(C)=C2CC[C@H](C)C[C@@H]21` gave a 50% inhibitory concentration (IC50) in experiment [1] greater than 1 µg/mL. Besides, the MIC in experiment [3] is greater than 1 µg/mL.
`C/C=C/[C@@H]1[C@H]2C[C@@H](C)CC[C@@H]2C(C)=C[C@H]1C(=O)c1c(OC)c(-c2ccc(OC)cc2)cn(C)c1=O` yielded a half-inhibitory concentration (IC50) in experiment [1] of 1 µg/mL (≈ 2.1 µM). In addition, the MIC in experiment [3] is greater than 1 µg/mL.
